# Data taken from ChEMBL document CHEMBL2163329, “Tuberculosis: the drug development pipeline at a glance” (Eur J Med Chem, 2012).
# How the values were obtained:
# [1] = tested on: Mycobacterium tuberculosis; assay: Ratio of gatifloxacin MIC to compound MIC for Mycobacterium tuberculosis; format: functional
# [2] = tested on: Mycobacterium tuberculosis; assay: Ratio of levofloxacin MIC to compound MIC for Mycobacterium tuberculosis; format: functional
# [3] = AUC (0 to infinity) in mouse serum at 100 mg/kg; format: ADME, organism-based; design: time infinity, dose 100 mg/kg
# [4] = AUC (0 to 24 hrs) in monkey at 5 mg/kg; format: ADME, organism-based, Macaca mulatta; design: time < 24 hr, dose 5 mg/kg; settings: rhesus monkey, plasma
# [5] = Half life in mouse serum at 100 mg/kg; format: ADME, organism-based; design: dose 100 mg/kg
# [6] = tested on: Mycobacterium tuberculosis; assay: Antimycobacterial activity against drug-sensitive Mycobacterium tuberculosis; format: functional
# [7] = Cmax in monkey at 5 mg/kg; format: ADME, organism-based, Macaca mulatta; design: dose 5 mg/kg; settings: rhesus monkey, in vivo
# [8] = tested on: Mycobacterium tuberculosis; assay: Ratio of moxifloxacin MIC to compound MIC for Mycobacterium tuberculosis; format: functional
# [9] = Half life in mouse lung at 100 mg/kg; format: ADME, organism-based; design: dose 100 mg/kg
# [10] = tested on: Mycobacterium tuberculosis; assay: Antimycobacterial activity against Mycobacterium tuberculosis infected in mouse assessed as log reduction of CFU in lung at 100 mg/kg; format: functional
# [11] = Cmax in mouse serum at 100 mg/kg; format: ADME, organism-based; design: dose 100 mg/kg
# [12] = AUC in mouse at 100 mg/kg; format: ADME, organism-based; design: dose 100 mg/kg; settings: plasma
# [13] = tested on: Mycolicibacterium smegmatis; assay: Antimycobacterial activity against Mycobacterium smegmatis; format: functional
# [14] = tested on: Mycobacterium tuberculosis; assay: Antimycobacterial activity against Mycobacterium tuberculosis; format: functional
# [15] = tested on: Mycobacterium tuberculosis; assay: Antimycobacterial activity against Mycobacterium tuberculosis infected in macrophages assessed as bacterial growth inhibition at 4 ug/mL; format: functional; settings: read-out: GI
# [16] = Tmax in Mycobacterium tuberculosis infected mouse at 2.5 mg/kg; format: ADME, organism-based; design: dose 2.5 mg/kg; settings: in vivo
# [17] = Tmax in smear positive tuberculosis patient; format: ADME, organism-based; settings: human, in vivo
# [18] = tested on: Mycobacterium tuberculosis; assay: Antimycobacterial activity against Mycobacterium tuberculosis infected in human assessed as log reduction of bacterial count at 100 to 400 mg, qd for 14 days; format: functional
# [19] = AUC in Mycobacterium tuberculosis infected mouse at 2.5 mg/kg; format: ADME, organism-based; design: dose 2.5 mg/kg; settings: plasma
# [20] = Cmax in human at 400 mg, po; format: ADME, organism-based; design: dose 400 mg, route oral; settings: in vivo
# [21] = AUC at steady state (0 to 24 hrs) in human at 150 mg, po qd for 14 days; format: ADME, organism-based; design: dose 150 mg, time < 24 hr, route oral; settings: plasma
# [22] = AUC at steady state (0 to 24 hrs) in human at 50 mg, po qd for 14 days; format: ADME, organism-based; design: dose 50 mg, time < 24 hr, route oral; settings: plasma
# [23] = AUC at steady state (0 to 24 hrs) in human at 400 mg, po qd for 14 days; format: ADME, organism-based; design: dose 400 mg, time < 24 hr, route oral; settings: plasma
# [24] = tested on: Mycobacterium tuberculosis; assay: Antimycobacterial activity against Mycobacterium tuberculosis infected in human assessed as log reduction of bacterial count at 400 mg, qd measured up to 7 days; format: functional
# [25] = tested on: Mycobacterium tuberculosis; assay: Antimycobacterial activity against Mycobacterium tuberculosis clinical isolate; format: functional
# [26] = Cmax in human at 10 mg, po; format: ADME, organism-based; design: dose 10 mg, route oral; settings: in vivo
# [27] = tested on: Mycobacterium tuberculosis; assay: Antimycobacterial activity against Mycobacterium tuberculosis H37Rv; format: functional
# [28] = tested on: Mycobacterium tuberculosis; assay: Antimycobacterial activity against Mycobacterium tuberculosis H37Rv infected in BALB/c mouse assessed as log reduction of CFU in lung at 300 mg/kg, po administered 6 times per week for 4 weeks; format: functional
# [29] = AUC in Mycobacterium tuberculosis H37Rv infected BALB/c mouse at 37.5 to 300 mg/kg, po administered 6 times per week for 4 weeks; format: ADME, organism-based; design: dose 37.5-300 mg/kg, route oral; settings: plasma
# [30] = tested on: Mycobacterium tuberculosis; assay: Antimycobacterial activity against Mycobacterium tuberculosis H37Rv infected in BALB/c mouse assessed as log reduction of CFU in spleen at 300 mg/kg, po administered 6 times per week for 4 weeks; format: functional
# [31] = Cmax in Mycobacterium tuberculosis H37Rv infected BALB/c mouse at 37.5 to 300 mg/kg, po administered 6 times per week for 4 weeks; format: ADME, organism-based; design: dose 37.5-300 mg/kg, route oral; settings: in vivo
# [32] = Half life in human at 400 mg, po; format: ADME, organism-based; settings: in vivo
# [33] = tested on: Mycobacterium tuberculosis; assay: Antimycobacterial activity against Mycobacterium tuberculosis infected in human assessed as log reduction of bacterial count at 400 mg, qd measured up to 2 days; format: functional
# [34] = AUC in human at 400 mg, po; format: ADME, organism-based; settings: plasma
# [35] = (§1) Tmax in human at 400 mg, po; format: ADME, organism-based; settings: in vivo, 400 mg
# [36] = tested on: Mycobacterium tuberculosis; assay: Antimycobacterial activity against Mycobacterium tuberculosis infected in human assessed as log reduction of bacterial count at 300 mg, qd measured up to 2 days; format: functional
# [37] = Bioavailability in human; format: ADME, organism-based; settings: in vivo
# [38] = tested on: Homo sapiens; assay: as §1; format: ADME, organism-based; settings: in vivo
# [39] = Bioavailability in human at 1200 mg; format: ADME, organism-based; settings: in vivo
# [40] = Bioavailability in human at 50 mg; format: ADME, organism-based; settings: in vivo
# [41] = Cmax in human at 50 to 1500 mg, po; format: ADME, organism-based; settings: in vivo
# [42] = tested on: Mycobacterium tuberculosis; assay: Antimycobacterial activity against Mycobacterium tuberculosis infected in human assessed as log reduction of bacterial count at 200 to 1200 mg; format: functional
# [43] = AUC in human at 50 to 1500 mg, po; format: ADME, organism-based; settings: plasma
# [44] = tested on: Mycobacterium tuberculosis; assay: Antimycobacterial activity against Mycobacterium tuberculosis infected in mouse administered as qd; format: functional
# [45] = Tmax in human at 50 to 1500 mg, po; format: ADME, organism-based; settings: in vivo
# [46] = Oral bioavailability in mouse at 10 mg/kg; format: ADME, organism-based; settings: in vivo
# [47] = tested on: Mycobacterium tuberculosis; assay: Antimycobacterial activity against Mycobacterium tuberculosis infected in mouse assessed as log reduction of CFU in lung at 10 to 25 mg/kg after 30 days; format: functional; settings: dose mg/kg 10-25
# [48] = Half life in human up to 300 mg, po; format: ADME, organism-based; settings: in vivo
# [49] = tested on: Mycobacterium tuberculosis; assay: Antimycobacterial activity against Mycobacterium tuberculosis infected in mouse assessed as log reduction of CFU in spleen at 10 to 25 mg/kg after 30 days; format: functional; settings: dose mg/kg 10-25
compound,measurement,setting,value
COc1c(N2CC3(CC3)[C@](C)(N)C2)c(F)cc2c(=O)c(C(=O)O)cn([C@@H]3C[C@@H]3F)c12,Ratio,[1],4
same,Ratio,[2],4
same,AUC(0-inf),[3],14700 ng·h/mL
same,AUC(0-t) at 24 h,[4],16900 ng·h/mL
same,half-life,[5],1.51 h
same,MIC90,[6],0.06 µg/mL
same,Cmax,[7],2200 ng/mL
same,Ratio,[8],4
same,half-life,[9],1.93 h
same,log10cfu,[10],2
same,Cmax,[11],10300 ng/mL
N#CCC(=O)N1CCC(c2nc(-c3cccs3)no2)CC1,AUC,[12],82000 ng·h/mL
C[C@@H]1COC2(CCN(c3nc(=O)c4cc(C(F)(F)F)cc([N+](=O)[O-])c4s3)CC2)O1,MIC,[13],0.004 µg/mL
same,MIC,[14],0.001 µg/mL
OC1CCN(C2CCN(CC34CC5CC(CC(C5)C3)C4)CC2)CC1,inhibition of growth at 4 µg/mL,[15],90%
C[C@]1(COc2ccc(N3CCC(Oc4ccc(OC(F)(F)F)cc4)CC3)cc2)Cn2cc([N+](=O)[O-])nc2O1,Tmax,[16],6 h
same,Tmax,[17],4 h
same,log10CFU/ml/day,[18],0.04
same,AUC,[19],4130 ng·h/mL
same,MIC,[6],0.006 µg/mL
CC(=O)NC[C@H]1CN(c2ccc([S+](C)[O-])cc2)C(=O)O1 (stereo not given in full),MIC,[14],0.3 µg/mL
COc1nc2ccc(Br)cc2cc1[C@@H](c1ccccc1)[C@@](O)(CCN(C)C)c1cccc2ccccc12 [BEDAQUILINE],Cmax,[20],9000 ng/mL
same,AUC at 24 h,[21],24000 ng·h/mL
same,AUC at 24 h,[22],7900 ng·h/mL
same,AUC at 24 h,[23],52000 ng·h/mL
same,log10CFU/ml,[24],0.77
same,MIC,[6],0.003 µg/mL
same,MIC,[25],0.03 µg/mL
same,Cmax,[26],70 ng/mL
same,MIC99,[27],0.03 µg/mL
C[C@H]1COC2(CCN(c3nc(=O)c4cc(C(F)(F)F)cc([N+](=O)[O-])c4s3)CC2)O1 [BTZ-043],log10cfu,[28],1
same,AUC at 672 h,[29],4600 ng·h/mL
same,MIC,[13],0.004 µg/mL
same,log10cfu,[30],2
same,Cmax,[31],2000 ng/mL
same,MIC,[14],0.001 µg/mL
CC(=O)NC[C@H]1CN(c2ccc(C(C)=O)cc2)C(=O)O1 [DUP-721],MIC,[14],0.3 µg/mL
COc1c(N2CCNC(C)C2)c(F)cc2c(=O)c(C(=O)O)cn(C3CC3)c12 (stereo not given) [GATIFLOXACIN],Cmax,[20],3400 ng/mL
same,half-life,[32],6.5 h
same,log10CFU/ml/day,[33],0.35
same,MIC90,[25],0.007 µg/mL
same,AUC,[34],30000 ng·h/mL
same,MIC,[27],0.12 µg/mL
same,Tmax,[35],1.5 h
NNC(=O)c1ccncc1 [ISONIAZID],log10CFU/ml,[24],1.88
same,log10CFU/ml/day,[36],0.67
CC(=O)NC[C@H]1CN(c2ccc(N3CCOCC3)c(F)c2)C(=O)O1 [LINEZOLID],MIC,[14],0.125 µg/mL
COc1c(N2C[C@@H]3CCCN[C@@H]3C2)c(F)cc2c(=O)c(C(=O)O)cn(C3CC3)c12 [MOXIFLOXACIN],Cmax,[20],4300 ng/mL
same,log10CFU/ml/day,[33],0.33
same,AUC,[34],39000 ng·h/mL
same,MIC,[27],0.18 µg/mL
same,bioavailability,[37],90%
same,Tmax,[38],1 h
O=C([C@@H](O)CO)N1CC=C(c2c(F)cc(N3C[C@H](COc4ccon4)OC3=O)cc2F)CC1 [POSIZOLID],bioavailability,[39],< 30%
same,bioavailability,[40],100%
O=[N+]([O-])c1cn2c(n1)OC[C@@H](OCc1ccc(OC(F)(F)F)cc1)C2 [PRETOMANID],Cmax,[41],300 ng/mL
same,log10CFU/ml/day,[42],0.1
same,AUC,[43],7500 ng·h/mL
same,MBC,[44],100 mg/kg
same,minimal effective dose,"[44]; Mycobacterium tuberculosis, read-out: MED",12.5 mg/kg
same,MIC,[6],0.06 µg/mL
same,Tmax,[45],4 h
same,MIC,[27],0.039 µg/mL
CO[C@H]1/C=C/O[C@@]2(C)Oc3c(C)c(O)c4c(O)c(c(/C=N/N5CCN(C)CC5)c(O)c4c3C2=O)NC(=O)/C(C)=C\C=C\[C@H](C)[C@H](O)[C@@H](C)[C@@H](O)[C@@H](C)[C@H](OC(C)=O)[C@@H]1C [RIFAMPIN],log10CFU/ml,[24],1.7
CC(C)=CCC/C(C)=C/CNCCNC1C2CC3CC(C2)CC1C3 (stereo not given) [SQ109],bioavailability,[46],8%
same,log10cfu,[47],1.5
same,MIC,[6],0.63 µM
same,half-life,[48],61 h
same,log10cfu,[49],1.5
CC(=O)NC[C@H]1CN(c2ccc(N3CCSCC3)c(F)c2)C(=O)O1 [SUTEZOLID],MIC,[6],0.03 µg/mL
